Values joined by “and” are separate entries in the source; they are usually repeats but may differ in a detail not shown here. Equal values may be shown once.
Test system: C. elegans
Assay: C. elegans motor phenotype scoring on solid media (Punc/jerky-unc, coiled, paralyzed), wild-type young adults
Format: in vivo, Caenorhabditis elegans
Conditions: for any phene, mean % fraction of young adults exhibiting any phenotype (coiled, jerky-Unc or paralyzed) / atypical locomotion (number of animals) / coiled (number of animals) / no phene (number of animals) / paralyzed (number of animals): one hour; for any phene, mean % fraction of young adults exhibiting any phenotype (coiled, jerky-Unc or paralyzed): mean of three biological replicates; for atypical locomotion (number of animals) / coiled (number of animals) / no phene (number of animals) / paralyzed (number of animals): young adults, 20 animals per trial, single replicate counts; for AVERAGES Fraction Coiled / AVERAGES Fraction Paralyzed / AVERAGES Fraction Punc: average of 3 replicates
[1] = 15 μM, 30 min, single replicate
[2] = 15 μM, 60 min, single replicate
[3] = 15 μM, 90 min, single replicate
[4] = 15 μM, 120 min, single replicate
[5] = 15 μM, 240 min, single replicate
[6] = 15 μM, 360 min, single replicate
[7] = 30 μM, 30 min, single replicate
[8] = 30 μM, 60 min, single replicate
[9] = 30 μM, 90 min, single replicate

O=[N+]([O-])c1ccc(N2CCN(CC3CC=CCC3)CC2)cc1 (stereo not drawn) [Nemacol-4]
any phene, mean % fraction of young adults exhibiting any phenotype (coiled, jerky-Unc or paralyzed) (3.75uM): 15%
atypical locomotion (number of animals) (3.75uM): 0 and 4 and 11
coiled (number of animals) (3.75uM): 0 and 1
no phene (number of animals) (3.75uM): 20 and 14 and 8
paralyzed (number of animals) (3.75uM): 0 and 1
AVERAGES Fraction Coiled (15 μM, 30 min): 0.0
AVERAGES Fraction Paralyzed (15 μM, 30 min): 0.0
AVERAGES Fraction Punc (15 μM, 30 min): 0.222
C1 (number of animals) [1]: 0
C2 (number of animals) [1]: 0
Fraction Coiled [1]: 0.0
Fraction Paralyzed [1]: 0.0
Fraction Punc [1]: 0.111 and 0.4
NP (number of animals) [1]: 16 and 11
P (number of animals) [1]: 0
Punc (number of animals) [1]: 2 and 7
AVERAGES Fraction Coiled (15 μM, 60 min): 0.0185
AVERAGES Fraction Paralyzed (15 μM, 60 min): 0.0
AVERAGES Fraction Punc (15 μM, 60 min): 0.426
C1 (number of animals) [2]: 1
C2 (number of animals) [2]: 0
Fraction Coiled [2]: 0.0556
Fraction Paralyzed [2]: 0.0
Fraction Punc [2]: 0.4 and 0.6
NP (number of animals) [2]: 10 and 7
P (number of animals) [2]: 0
Punc (number of animals) [2]: 7 and 11
AVERAGES Fraction Coiled (15 μM, 90 min): 0.0
AVERAGES Fraction Paralyzed (15 μM, 90 min): 0.0
AVERAGES Fraction Punc (15 μM, 90 min): 0.352
C1 (number of animals) [3]: 0
C2 (number of animals) [3]: 0
Fraction Coiled [3]: 0.0
Fraction Paralyzed [3]: 0.0
Fraction Punc [3]: 0.5
NP (number of animals) [3]: 9
P (number of animals) [3]: 0
Punc (number of animals) [3]: 9
AVERAGES Fraction Coiled (15 μM, 120 min): 0.0185
AVERAGES Fraction Paralyzed (15 μM, 120 min): 0.0
AVERAGES Fraction Punc (15 μM, 120 min): 0.3
C1 (number of animals) [4]: 0
C2 (number of animals) [4]: 0
Fraction Coiled [4]: 0.0
Fraction Paralyzed [4]: 0.0
Fraction Punc [4]: 0.333 and 0.4
NP (number of animals) [4]: 12 and 11
P (number of animals) [4]: 0
Punc (number of animals) [4]: 6 and 7
AVERAGES Fraction Coiled (15 μM, 240 min): 0.0185
AVERAGES Fraction Paralyzed (15 μM, 240 min): 0.0
AVERAGES Fraction Punc (15 μM, 240 min): 0.0741
C1 (number of animals) [5]: 1
C2 (number of animals) [5]: 0
Fraction Coiled [5]: 0.0556
Fraction Paralyzed [5]: 0.0
Fraction Punc [5]: 0.0 and 0.167
NP (number of animals) [5]: 15
P (number of animals) [5]: 0
Punc (number of animals) [5]: 0 and 3
AVERAGES Fraction Coiled (15 μM, 360 min): 0.0
AVERAGES Fraction Paralyzed (15 μM, 360 min): 0.0
AVERAGES Fraction Punc (15 μM, 360 min): 0.0
C1 (number of animals) [6]: 0
C2 (number of animals) [6]: 0
Fraction Coiled [6]: 0.0
Fraction Paralyzed [6]: 0.0
Fraction Punc [6]: 0.0
NP (number of animals) [6]: 18
P (number of animals) [6]: 0
Punc (number of animals) [6]: 0
Next Day Animals alive (moving fine) (15 μM, next day, single replicate): alive, recovered
any phene, mean % fraction of young adults exhibiting any phenotype (coiled, jerky-Unc or paralyzed) (15uM): 45%
atypical locomotion (number of animals) (15uM): 4 and 2 and 5 and 8
coiled (number of animals) (15uM): 0 and 1 and 6 and 3
no phene (number of animals) (15uM): 16 and 15 and 17 and 18 and 0
paralyzed (number of animals) (15uM): 0 and 9
AVERAGES Fraction Coiled (30 μM, 30 min): 0.0556
AVERAGES Fraction Paralyzed (30 μM, 30 min): 0.0
AVERAGES Fraction Punc (30 μM, 30 min): 0.6
C1 (number of animals) [7]: 0 and 2
C2 (number of animals) [7]: 1 and 0
Fraction Coiled [7]: 0.0556 and 0.0 and 0.111
Fraction Paralyzed [7]: 0.0
Fraction Punc [7]: 0.6 and 0.444 and 0.7
NP (number of animals) [7]: 6 and 10 and 3
P (number of animals) [7]: 0
Punc (number of animals) [7]: 11 and 8 and 13
AVERAGES Fraction Coiled (30 μM, 60 min): 0.0752
AVERAGES Fraction Paralyzed (30 μM, 60 min): 0.0
AVERAGES Fraction Punc (30 μM, 60 min): 0.7
C1 (number of animals) [8]: 0
C2 (number of animals) [8]: 3 and 1 and 0
Fraction Coiled [8]: 0.167 and 0.0588 and 0.0
Fraction Paralyzed [8]: 0.0
Fraction Punc [8]: 0.7 and 0.529 and 0.9
NP (number of animals) [8]: 2 and 7 and 1
P (number of animals) [8]: 0
Punc (number of animals) [8]: 13 and 9 and 17
AVERAGES Fraction Coiled (30 μM, 90 min): 0.0556
AVERAGES Fraction Paralyzed (30 μM, 90 min): 0.0556
AVERAGES Fraction Punc (30 μM, 90 min): 0.667
C1 (number of animals) [9]: 0
C2 (number of animals) [9]: 1 and 2 and 0
Fraction Coiled [9]: 0.0556 and 0.111 and 0.0
Fraction Paralyzed [9]: 0.167 and 0.0
Fraction Punc [9]: 0.7 and 0.5 and 0.8
NP (number of animals) [9]: 1 and 7 and 4

Source: paper PMC10066365, “Nemacol is a small molecule inhibitor of C. elegans vesicular acetylcholine transporter with anthelmintic potential” (Nature Communications, 2023)
